In ChEMBL document CHEMBL3639238, “Hybrid cholinesterase inhibitors” (2014):

Assays:
Acetylcholinesterase = Acetylcholinesterase (Homo sapiens, UniProt P22303); assay: (§1) Inhibition Assay: The biological activity of the compounds of general formula (I) towards the cholinesterase inhibition was evaluated using Ellman's method (Ellman, G. L.; Courtney, K. D.; Anders, B.; Featherstone, R. M. Biochem. Pharmacol. 1961, 7, 88-95).This method of evaluation of the cholinesterase inhibitors activity is based on the fact that acetyl/butyrylcholinesterase interacts with the inhibitor, which prevents the acetyl/butyrylcholine hydrolysis. The inhibitor causes the enzyme activity drop which is dependent on the inhibitor concentration. The enzyme unbound with the inhibitor is able to hydrolyze acetyl/butyrylthiocholine (ASCh/BSCh). The amount of the hydrolyzed ASCh/BSCh is measured indirectly, by quantification of the product of its reaction with DTNB (5,5â²-dithio-bis-2-nitrobenzoic acid). Ellman's method relies therefore on the spectrophotometric quantification of product of the reaction between […] and DTNB.
Chain of Acetylcholinesterase (P22303 whole entry): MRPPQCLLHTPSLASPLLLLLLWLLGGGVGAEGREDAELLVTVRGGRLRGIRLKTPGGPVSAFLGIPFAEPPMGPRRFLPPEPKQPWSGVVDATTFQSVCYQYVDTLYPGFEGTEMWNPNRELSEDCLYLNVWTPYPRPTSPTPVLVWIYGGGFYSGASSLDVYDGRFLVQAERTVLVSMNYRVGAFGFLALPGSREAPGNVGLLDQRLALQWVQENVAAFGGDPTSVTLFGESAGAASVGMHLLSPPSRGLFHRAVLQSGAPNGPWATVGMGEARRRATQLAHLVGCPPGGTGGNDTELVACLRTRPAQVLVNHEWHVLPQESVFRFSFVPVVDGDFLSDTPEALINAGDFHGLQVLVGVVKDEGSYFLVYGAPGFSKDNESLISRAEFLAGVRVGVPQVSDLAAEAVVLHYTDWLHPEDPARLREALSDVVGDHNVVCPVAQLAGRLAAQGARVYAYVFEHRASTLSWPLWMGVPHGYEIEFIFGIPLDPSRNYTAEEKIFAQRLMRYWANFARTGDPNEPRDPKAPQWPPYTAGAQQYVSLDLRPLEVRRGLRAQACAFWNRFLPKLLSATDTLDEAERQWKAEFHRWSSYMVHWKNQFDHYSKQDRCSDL

Cholinesterase = Cholinesterase (Homo sapiens, UniProt P06276); assay: as §1
Chain of Cholinesterase (P06276 whole entry): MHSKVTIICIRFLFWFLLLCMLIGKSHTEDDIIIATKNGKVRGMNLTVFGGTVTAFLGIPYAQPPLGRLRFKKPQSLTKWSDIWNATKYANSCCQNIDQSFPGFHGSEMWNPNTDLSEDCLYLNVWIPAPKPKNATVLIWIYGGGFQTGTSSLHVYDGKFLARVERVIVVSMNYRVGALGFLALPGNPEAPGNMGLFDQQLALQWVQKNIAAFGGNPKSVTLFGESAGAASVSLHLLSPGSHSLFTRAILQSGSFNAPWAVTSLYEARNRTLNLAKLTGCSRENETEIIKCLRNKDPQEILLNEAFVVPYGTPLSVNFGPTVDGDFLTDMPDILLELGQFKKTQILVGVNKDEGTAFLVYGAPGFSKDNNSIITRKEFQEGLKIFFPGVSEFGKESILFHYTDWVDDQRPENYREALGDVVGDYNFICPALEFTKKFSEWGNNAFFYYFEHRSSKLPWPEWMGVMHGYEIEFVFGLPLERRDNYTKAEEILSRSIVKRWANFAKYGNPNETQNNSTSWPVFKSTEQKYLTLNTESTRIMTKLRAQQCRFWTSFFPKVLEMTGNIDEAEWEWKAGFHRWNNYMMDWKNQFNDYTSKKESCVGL

Row | SMILES | IC50 (Acetylcholinesterase) [nM] | IC50 (Cholinesterase) [nM]
1 | CC(=O)NCCc1c[nH]c2ccc(OC(=O)NCCCCCCCNc3c4c(nc5cc(Cl)ccc35)CCCC4)cc12 | 7.7 | 0.38
2 | CC(=O)NCCc1c[nH]c2ccc(OC(=O)NCCNc3c4c(nc5cc(Cl)ccc35)CCCC4)cc12 | 20.1 | 34.5
3 | CC(=O)NCCc1c[nH]c2ccc(OC(=O)NCCCCCCCNc3c4c(nc5ccc(Cl)cc35)CCCC4)cc12 | 39.9 | 0.88
4 | CC(=O)NCCc1c[nH]c2ccc(OC(=O)NCCNc3c4c(nc5ccc(Cl)cc35)CCCC4)cc12 | 3280 | 8.2
5 | CC(=O)NCCc1c[nH]c2ccc(OC(=O)NCCCCCCCCCCNc3c4c(nc5cc(Cl)ccc35)CCCC4)cc12 | 8.1 | 1.2
6 | CC(=O)NCCc1c[nH]c2ccc(OC(=O)NCCCCCCCCCCCCNc3c4c(nc5cc(Cl)ccc35)CCCC4)cc12 | 25.6 | 1.31
